In US10214546B2, “Btk inhibitors” (MERCK SHARP & DOHME CORP., priority 2014, dated 2019):
Where two headings read alike, the source gives them in different places.

Columns and labels:
[1] = system: adenosine uptake into HeLa cells; assay: [3H]Adenosine uptake assay in HeLa cells; format: cell-based; conditions: [3H]adenosine accumulation in HeLa cells, compound range 10 μM to 0.032 nM, read-out: ADU inhibition IC50
Procedure, shortened: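 HeLa cells in HBSS + 5% FBS were preincubated 30 min at ambient temperature with compound (ten-point 1:3 series, 10 µM–[…] final), then given [3H]adenosine (added as a 500 nM solution) for 60 min. Cell-associated label was read by scintillating-plate proximity counting; IC50 from 4-parameter fit of cps versus log concentration.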

[2] = target: BTK enzyme (recombinant full-length BTK, hBTK) (Homo sapiens (Human), UniProt Q06187); assay: BTK enzymatic activity LANCE TR-FRET assay; format: biochemical; conditions: 50 pM hBTK, 25 μM ATP, 2 μM biotin-A5-peptide; compound range 1 μM to 0.017 nM; read-out: BTK binding IC50
Sequence of BTK enzyme (recombinant full-length BTK, hBTK) (Q06187 whole entry): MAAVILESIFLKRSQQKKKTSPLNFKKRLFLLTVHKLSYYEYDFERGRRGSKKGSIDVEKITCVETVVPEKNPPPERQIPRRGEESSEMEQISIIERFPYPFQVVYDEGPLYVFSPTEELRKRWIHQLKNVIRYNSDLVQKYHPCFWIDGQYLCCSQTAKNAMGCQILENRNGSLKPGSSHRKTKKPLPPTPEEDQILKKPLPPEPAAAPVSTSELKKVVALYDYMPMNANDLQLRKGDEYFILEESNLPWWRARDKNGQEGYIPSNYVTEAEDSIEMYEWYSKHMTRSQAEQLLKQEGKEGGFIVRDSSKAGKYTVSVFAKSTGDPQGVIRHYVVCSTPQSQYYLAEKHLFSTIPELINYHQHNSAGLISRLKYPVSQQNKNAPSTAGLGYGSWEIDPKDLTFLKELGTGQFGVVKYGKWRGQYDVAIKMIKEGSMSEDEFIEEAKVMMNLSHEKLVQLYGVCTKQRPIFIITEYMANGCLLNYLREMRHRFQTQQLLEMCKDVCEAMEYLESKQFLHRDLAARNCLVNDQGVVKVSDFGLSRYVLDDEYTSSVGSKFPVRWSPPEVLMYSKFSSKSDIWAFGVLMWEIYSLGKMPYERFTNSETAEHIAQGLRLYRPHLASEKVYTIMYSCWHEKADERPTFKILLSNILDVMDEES

Compound | IC50 [1] | IC50 [2] | IC50 ([1]; Homo sapiens, HeLa)
COc1ccccc1[C@@](C)(O)c1ccc(-c2nc([C@@H]3CC[C@H]4CCC(=O)N4C3)n3ccnc(N)c23)cc1 [Example 49, (6R,8aS)-6-(8-amino-1-{4-[(1S)-1-hydroxy-1-(2-methoxyphenyl)ethyl]phenyl}imidazo[1,5-a]pyrazin-3-yl)hexahydroindolizin-3(2H)-one] | – | 45.2 nM | 2950 nM
Nc1nccn2c([C@@H]3CC[C@H]4CCC(=O)N4C3)nc(-c3ccc(C(O)(c4cccc(C(F)(F)F)c4)C(F)F)cc3)c12 (stereo partly drawn) [Example 112, (6R,8aS)-6-[8-amino-1-(4-{2,2-difluoro-1-hydroxy-1-[3-(trifluoromethyl)phenyl]ethyl}phenyl)imidazo [1,5-a]pyrazin-3-yl]hexahydroindolizin-3(2H)-one] | 1870 nM | 5.6 nM | –
C[C@@](O)(c1ccc(-c2nc([C@@H]3CC[C@H]4CCC(=O)N4C3)n3ccnc(N)c23)cc1)c1cc(C(F)(F)F)ccn1 [Example 37, (6R,8aS)-6-[8-amino-1-(4-{(1R)-1-hydroxy-1-[4-(trifluoromethyl)pyridin-2-yl]ethyl}phenyl)imidazo[1,5-a]pyrazin-3-yl]hexahydroindolizin-3(2H)-one] | – | 255 nM | 3470 nM
C[C@@](O)(c1ccc(-c2nc([C@@H]3CC[C@H]4CCC(=O)N4C3)n3ccnc(N)c23)cc1)c1cncc(C(F)(F)F)c1 [Example 136, (6R,8aS)-6-[8-amino-1-(4-{(1R)-1-hydroxy-1-[5-(trifluoromethyl)pyridin-3-yl]ethyl}phenyl)imidazo [1,5-a]pyrazin-3-yl]hexahydroindolizin-3(2H)-one] | – | 87.6 nM | 4620 nM
C[C@@](O)(c1ccc(-c2nc([C@@H]3CC[C@H]4CCC(=O)N4C3)n3c(Cl)cnc(N)c23)cc1)c1cccc(C(F)(F)F)c1 [Example 6, (6R,8aS)-6-(8-amino-5-chloro-1-(4-((R)-1-hydroxy-1-(3-(trifluoromethyl)phenyl)ethyl)phenyl)imidazo[1,5-a]pyrazin-3-yl)hexahydroindolizin-3(2H)-one] | – | 0.76 nM | 1730 nM
C[C@@](O)(c1ccc(-c2nc([C@@H]3CC[C@H]4CCC(=O)N4C3)n3ccnc(N)c23)cc1)c1cccc(C2CCC2)c1 [Example 83, (6R,8aS)-6-(8-amino-1-{4-[(1R)-1-(3-cyclobutylphenyl)-1-hydroxyethyl]phenyl}imidazo[1,5-a]pyrazin-3-yl)hexahydroindolizin-3(2H)-one] | – | 0.12 nM | 1330 nM
C[C@@](O)(c1ccc(-c2nc([C@@H]3CC[C@H]4CCC(=O)N4C3)n3ccnc(N)c23)cc1)c1cccc(C#N)c1 [Example 85, 3-[(1R)-1-(4-{8-amino-3-[(6R,8aS)-3-oxooctahydroindolizin-6-yl]imidazo[1,5-a]pyrazin-1-yl}phenyl)-1-hydroxyethyl]benzonitrile] | – | 23.4 nM | 3530 nM
C[C@@](O)(c1ccc(-c2nc([C@@H]3CC[C@H]4CCC(=O)N4C3)n3c(Cl)cnc(N)c23)cc1)c1cccc(CC(F)(F)F)c1 [Example 121, (6R,8aS)-6-[8-amino-5-chloro-1-(4-{(1R)-1-hydroxy-1-[3-(2,2,2-trifluoroethyl)phenyl]ethyl}phenyl)imidazo[1,5-a]pyrazin-3-yl]hexahydroindolizin-3(2H)-one] | – | 0.18 nM | 1940 nM
CC(O)(c1ccc(-c2nc([C@@H]3CC[C@H]4CCC(=O)N4C3)n3ccnc(N)c23)cc1)c1ccccn1 (stereo partly drawn) [Example 17, (6R,8aS)-6-{8-amino-1-[4-(1-hydroxy-1-pyridin-2-ylethyl)phenyl]imidazo[1,5-a]pyrazin-3-yl}hexahydroindolizin-3(2H)-one] | – | 324 nM | 5720 nM
C[C@](O)(c1ccc(-c2nc([C@@H]3CC[C@H]4CCC(=O)N4C3)n3ccnc(N)c23)cc1)c1ccc(C(F)(F)F)s1 [Example 111, (6R,8aS)-6-[8-amino-1-(4-{(1S)-1-hydroxy-1-[5-(trifluoromethyl)thiophen-2-yl]ethyl}phenyl)imidazo [1,5-a]pyrazin-3-yl]hexahydroindolizin-3(2H)-one] | 722 nM | 1000 nM | –
Nc1ncc(Cl)n2c([C@@H]3CC[C@H]4CCC(=O)N4C3)nc(-c3ccc(C(O)c4cc(C(F)(F)F)ccc4F)cc3)c12 (some centres unmarked) [Example 126] | – | 1000 nM | 1070 nM

The remaining lines, values ahead:

IC50 [1] | IC50 [2] | IC50 ([1]; Homo sapiens, HeLa) | Compound
2040 nM | 12.1 nM | – | CC(O)(c1ccc(-c2nc([C@@H]3CC[C@H]4CCC(=O)N4C3)n3ccnc(N)c23)cc1)c1cc(C(F)(F)F)ccc1F (stereo partly drawn) [Example 151, (6R,8aS)-6-[8-amino-1-(4-{1-[2-fluoro-5-(trifluoromethyl)pheny]-1-hydroxyethyl}phenyl)imidazo[1,5-a]pyrazin-3-yl]hexahydroindolizin-3(2H)-one]
– | 3.5 nM | 3300 nM | C[C@@](O)(c1ccc(-c2nc([C@@H]3CC[C@H]4C(C(F)(F)F)CC(=O)N4C3)n3ccnc(N)c23)cc1)c1cccc(C(F)(F)F)c1 (stereo partly drawn) [Example 179, (1R,6R,8aS)-6-[8-amino-1-(4-{(1R)-1-hydroxy-1-[3-(trifluoromethyl)phenyl]ethyl}phenyl)imidazo [1,5-a]pyrazin-3-yl]-1-(trifluoromethyl) hexahydroindolizin-3(2H)-one]
– | 1000 nM | 1960 nM | C[C@](O)(c1ccc(-c2nc([C@@H]3CC[C@H]4CCC(=O)N4C3)n3ccnc(N)c23)cc1)c1cccc(-n2ccnc2)c1 [Example 153, (6R,8aS)-6-[8-amino-1-(4-{(1S)-1-hydroxy-1-[3-(1H-imidazol-1-yl)phenyl]ethyl}phenyl)imidazo[1,5-a]pyrazin-3-yl]hexahydroindolizin-3(2H)-one]
– | 858 nM | 2750 nM | C[C@@](O)(c1ccc(-c2nc([C@@H]3CC[C@H]4CCC(=O)N4C3)n3ccnc(N)c23)cc1)c1ccnc(C(F)(F)F)c1 [Example 155, (6R,8aS)-6-[8-amino-1-(4-{(1R)-1-hydroxy-1-[2-(trifluoromethyl)pyridin-4-yl]ethyl}phenyl)imidazo [1,5-a]pyrazin-3-yl]hexahydroindolizin-3(2H)-one]
3490 nM | 2.5 nM | – | CC1(C)C[C@@H]2CC[C@@H](c3nc(-c4ccc(C(C)(O)c5cccc(C(F)(F)F)c5)cc4F)c4c(N)nccn34)CN2C1=O (stereo partly drawn) [Example 197, (6R,8aS)-6-[8-amino-1-(2-fluoro-4-{1-hydroxy-1-[3-(trifluoromethyl)phenyl]ethyl}phenyl)imidazo [1,5-a]pyrazin-3-yl]-2,2-dimethylhexahydroindolizin-3(2H)-one]
– | 39.1 nM | 2960 nM | C[C@@](O)(c1ccc(-c2nc([C@@H]3CC[C@H]4CCC(=O)N4C3)n3ccnc(N)c23)cc1)c1cccc(-n2ccnc2)c1 [Example 152, (6R,8aS)-6-[8-amino-1-(4-{(1R)-1-hydroxy-1-[3-(1H-imidazol-1-yl)phenyl]ethyl}phenyl)imidazo[1,5-a]pyrazin-3-yl]hexahydroindolizin-3(2H)-one]
– | 7.1 nM | 6850 nM | CC1(C)C[C@@H]2CC[C@@H](c3nc(-c4ccc([C@@](C)(O)c5cccc(C(F)(F)F)c5)cc4)c4c(N)ncc(F)n34)CN2C1=O [Example 198, (6R,8aS)-6-[8-amino-5-fluoro-1-(4-{(1R)-1-hydroxy-1-[3-(trifluoromethyl)phenyl]ethyl}phenyl)imidazo [1,5-a]pyrazin-3-yl]-2,2-dimethylhexahydroindolizin-3(2H)-one]
10000 nM | 2 nM | – | CCOc1cc(C(C)(O)c2cccc(C)c2)ccc1-c1nc([C@@H]2CC[C@H]3CCC(=O)N3C2)n2ccnc(N)c12 (stereo partly drawn) [Example 166, (6R,8aS)-6-(8-amino-1-{2-ethoxy-4-[1-hydroxy-1-(3-methylphenyl)ethyl]phenyl}imidazo[1,5-a]pyrazin-3-yl)hexahydroindolizin-3(2H)-one]
